From patent EP4667466A1, “PROTAC DEGRADERS OF MLLT1 AND/OR MLLT3” (priority 2024, dated 2025)

Target: T1, MLLT1 (Homo sapiens, UniProt Q03111)
T1 construct: endogenous in cells; host or cells: MV4-11 (ATCC CRL-9591)
T1 sequence (Q03111 1-559): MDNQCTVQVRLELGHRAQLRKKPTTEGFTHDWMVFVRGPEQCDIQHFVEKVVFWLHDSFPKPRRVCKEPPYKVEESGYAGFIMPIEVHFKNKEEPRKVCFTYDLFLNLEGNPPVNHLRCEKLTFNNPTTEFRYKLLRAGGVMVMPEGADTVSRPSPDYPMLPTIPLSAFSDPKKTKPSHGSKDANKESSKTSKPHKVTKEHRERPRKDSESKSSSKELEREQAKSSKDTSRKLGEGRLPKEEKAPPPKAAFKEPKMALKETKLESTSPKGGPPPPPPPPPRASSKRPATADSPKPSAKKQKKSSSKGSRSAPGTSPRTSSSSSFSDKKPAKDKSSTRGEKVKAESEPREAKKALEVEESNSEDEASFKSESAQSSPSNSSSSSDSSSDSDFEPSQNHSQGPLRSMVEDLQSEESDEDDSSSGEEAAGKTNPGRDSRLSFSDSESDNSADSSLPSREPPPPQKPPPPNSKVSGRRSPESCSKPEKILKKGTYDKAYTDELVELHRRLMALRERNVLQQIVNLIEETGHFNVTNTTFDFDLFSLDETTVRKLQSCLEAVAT
Experiment: MLLT1 degradation assay (JESS automated chemiluminescent detection) in MV4-11 cells
Assay type: cell-based
Conditions: 24h, with respect to DMSO control
Summary of the method: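 MV4-11 cells were treated with 1000, 100 or 10 nM compound (0.1% DMSO) for 24 h at 37 °C. Lysates (4 µg protein) were probed for MLLT1 and GAPDH by JESS capillary chemiluminescence. Degradation was calculated from band peak areas versus DMSO control and binned into categories A–D.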

inhibition at 0.01 µM	inhibition at 0.1 µM	inhibition at 1 µM	Compound
≥ 75%	≥ 75%	≥ 75%	Cc1nn(CCCCCCCC#Cc2cccc3c2CN(C2CCC(=O)NC2=O)C3=O)c2cc(C(=O)Nc3cc4[nH]c([C@H]5CCCN5C)cc4cn3)c(F)cc12 (stereo partly drawn) [Example 58, 1-(9-(2-(2,6-dioxopiperidin-3-yl)-1-oxoisoindolin-4-yl)non-8-yn-1-yl)-5-fluoro-3-methyl-N-(2-((R)-1-methylpyrrolidin-2-yl)-1H-pyrrolo[3,2-c]pyridin-6-yl)-1H-indazole-6-carboxamide]
≥ 75%	≥ 75%	≥ 75%	CN1CCC[C@@H]1c1cc2cnc(NC(=O)c3ccc4c(C5CC5)nn(CCCCCCCC#Cc5cccc6c5CN(C5CCC(=O)NC5=O)C6=O)c4c3)cc2[nH]1 (stereo partly drawn) [Example 59, 3-cyclopropyl-1-(9-(2-(2,6-dioxopiperidin-3-yl)-1-oxoisoindolin-4-yl)non-8-yn-1-yl)-N-(2-((R)-1-methylpyrrolidin-2-yl)-1H-pyrrolo [3,2-c]pyridin-6-yl)-1H-indazole-6-carboxamide]
25 to 50%	50 to 75%	≥ 75%	Cc1nn(CCCCCCCC#Cc2cc3c(cc2F)C(=O)N(C2CCC(=O)NC2=O)C3)c2cc(C(=O)Nc3cc4[nH]c([C@H]5CCCN5C)cc4cn3)ccc12 (stereo partly drawn) [Example 60, 1-(9-(2-(2,6-dioxopiperidin-3-yl)-6-fluoro-1-oxoisoindolin-5-yl)non-8-yn-1-yl)-3-methyl-N-(2-((R)-1-methylpyrrolidin-2-yl)-1H-pyrrolo[3,2-c]pyridin-6-yl)-1H-indazole-6-carboxamide]
25 to 50%	≥ 75%	≥ 75%	Cc1nn(CCCCCCCC#Cc2cccc(C3CCC(=O)NC3=O)c2F)c2cc(C(=O)Nc3cc4[nH]c([C@H]5CCCN5C)cc4cn3)ccc12 (stereo partly drawn) [Example 61, 1-(9-(3-(2,6-dioxopiperidin-3-yl)-2-fluorophenyl)non-8-yn-1-yl)-3-methyl-N-(2-((R)-1-methylpyrrolidin-2-yl)-1H-pyrrolo [3,2-c]pyridin-6-yl)-1H-indazole-6-carboxamide]
50 to 75%	50 to 75%	≥ 75%	Cc1nn(CCCCCCCC#Cc2cccc(C3CCC(=O)NC3=O)n2)c2cc(C(=O)Nc3cc4[nH]c([C@H]5CCCN5C)cc4cn3)ccc12 (stereo partly drawn) [Example 62, 1-(9-(6-(2,6-dioxopiperidin-3-yl)pyridin-2-yl)non-8-yn-1-yl)-3-methyl-N-(2-((R)-1-methylpyrrolidin-2-yl)-1H-pyrrolo [3,2-c]pyridin-6-yl)-1H indazole-6-carboxamide]
< 25%	50 to 75%	≥ 75%	Cc1nn(CCCCCCCC#Cc2cccc(N3CCC(=O)NC3=O)c2F)c2cc(C(=O)Nc3cc4[nH]c([C@H]5CCCN5C)cc4cn3)ccc12 [Example 63, (R)-1-(9-(3-(2,4-dioxotetrahydropyrimidin-1(2H)-yl)-2-fluorophenyl)non-8-yn-1-yl)-3-methyl-N-(2-(1-methylpyrrolidin-2-yl)-1H-pyrrolo [3,2-c]pyridin-6-yl)-1H-indazole-6-carboxamide]
25 to 50%	50 to 75%	≥ 75%	Cc1nn(CCCCCCCC#Cc2cc3c(cc2F)c(N2CCC(=O)NC2=O)nn3C)c2cc(C(=O)Nc3cc4[nH]c([C@H]5CCCN5C)cc4cn3)ccc12 [Example 65, (R)-1-(9-(3-(2,4-dioxotetrahydropyrimidin-1(2H)-yl)-5-fluoro-1-methyl-1H-indazol-6-yl)non-8-yn-1-yl)-3-methyl-N-(2-(1-methylpyrrolidin-2-yl)-1H-pyrrolo[3,2-c]pyridin-6-yl)-1H-indazole-6-carboxamide]
≥ 75%	≥ 75%	≥ 75%	Cc1nn(CCCCCCCC#Cc2cccc3c2CN(C2CCC(=O)NC2=O)C3=O)c2cc(C(=O)Nc3cc4[nH]c([C@H]5CCCN5C)c(C#N)c4cn3)ccc12 (stereo partly drawn) [Example 66, N-(3-cyano-2-((R)-1-methylpyrrolidin-2-yl)-1H-pyrrolo[3,2-c]pyridin-6-yl)-1-(9-(2-(2,6-dioxopiperidin-3-yl)-1-oxoisoindolin-4-yl)non-8-yn-1-yl)-3-methyl-1H-indazole-6-carboxamide]
≥ 75%	≥ 75%	≥ 75%	Cc1nn(CCCCCCCC#Cc2ccc(F)c3c2CN(C2CCC(=O)NC2=O)C3=O)c2cc(C(=O)Nc3cc4[nH]c([C@H]5CCCN5C)c(Cl)c4cn3)ccc12 (stereo partly drawn) [Example 67, N-(3-chloro-2-((R)-1-methylpyrrolidin-2-yl)-1H-pyrrolo[3,2-c]pyridin-6-yl)-1-(9-(2-(2,6-dioxopiperidin-3-yl)-7-fluoro-1-oxoisoindolin-4-yl)non-8-yn-1-yl)-3-methyl-1H indazole-6-carboxamide]
≥ 75%	≥ 75%	50 to 75%	Cc1nn(C2CCN(CC#Cc3cccc4c3CN(C3CCC(=O)NC3=O)C4=O)CC2)c2cc(C(=O)Nc3cc4[nH]c([C@H]5CCCN5C)cc4cn3)ccc12 (stereo partly drawn) [Example 68, 1-(1-(3-(2-(2,6-dioxopiperidin-3-yl)-1-oxoisoindolin-4-yl)prop-2-yn-1-yl)piperidin-4-yl)-3-methyl-N-(2-((R)-1-methylpyrrolidin-2-yl)-1H-pyrrolo[3,2-c]pyridin-6-yl)-1H-indazole-6-carboxamide]
≥ 75%	≥ 75%	≥ 75%	Cc1nn(C2CCN(CC3CCN(c4cc5c(cc4F)C(=O)N(C4CCC(=O)NC4=O)C5=O)CC3)CC2)c2cc(C(=O)Nc3cc4[nH]c([C@H]5CCCN5C)cc4cn3)ccc12 (stereo partly drawn) [Example 69, 1-(1-((1-(2-(2,6-dioxopiperidin-3-yl)-6-fluoro-1,3-dioxoisoindolin-5-yl)piperidin-4-yl)methyl)piperidin-4-yl)-3-methyl-N-(2-((R)-1-methylpyrrolidin-2-yl)-1H-pyrrolo[3,2-c]pyridin-6-yl)-1H-indazole-6-carboxamide]
≥ 75%	≥ 75%	≥ 75%	Cc1nn(C2CCN(CC3CCN(c4ccc5c(c4)C(=O)N(C4CCC(=O)NC4=O)C5=O)CC3)CC2)c2cc(C(=O)Nc3cc4[nH]c([C@H]5CCCN5C)cc4cn3)ccc12 (stereo partly drawn) [Example 70, 1-(1-((1-(2-(2,6-dioxopiperidin-3-yl)-1,3-dioxoisoindolin-5-yl)piperidin-4-yl)methyl)piperidin-4-yl)-3-methyl-N-(2-((R)-1-methylpyrrolidin-2-yl)-1H-pyrrolo[3,2-c]pyridin-6-yl)-1H-indazole-6-carboxamide]
50 to 75%	≥ 75%	≥ 75%	Cc1nn(C2CCN(CC3CCN(c4cccc5c4C(=O)N(C4CCC(=O)NC4=O)C5=O)CC3)CC2)c2cc(C(=O)Nc3cc4[nH]c([C@H]5CCCN5C)cc4cn3)ccc12 (stereo partly drawn) [Example 71, 1-(1-((1-(2-(2,6-dioxopiperidin-3-yl)-1,3-dioxoisoindolin-4-yl)piperidin-4-yl)methyl)piperidin-4-yl)-3-methyl-N-(2-((R)-1-methylpyrrolidin-2-yl)-1H-pyrrolo[3,2-c]pyridin-6-yl)-1H-indazole-6-carboxamide]
≥ 75%	≥ 75%	50 to 75%	Cc1nn(CC#Cc2cccc3c2CN(C2CCC(=O)NC2=O)C3=O)c2cc(C(=O)Nc3cc4[nH]c([C@H]5CCCN5C)cc4cn3)ccc12 (stereo partly drawn) [Example 72, 1-(3-(2-(2,6-dioxopiperidin-3-yl)-1-oxoisoindolin-4-yl)prop-2-yn-1-yl)-3-methyl-N (2-((R)-1-methylpyrrolidin-2-yl)-1H pyrrolo[3,2-c]pyridin-6-yl)-1H-indazole-6-carboxamide]
50 to 75%	≥ 75%	≥ 75%	Cc1nn(CCCCCCC2CCN(c3cccc(C(=O)N[C@H]4CCC(=O)NC4=O)n3)CC2)c2cc(C(=O)Nc3cc4[nH]c([C@H]5CCCN5C)cc4cn3)ccc12 [Example 73, 1-(6-(1-(6-(((S)-2,6-dioxopiperidin-3-yl)carbamoyl)pyridin-2-yl)piperidin-4-yl)hexyl)-3-methyl-N-(2-((R)-1-methylpyrrolidin-2-yl)-1H-pyrrolo[3,2-c]pyridin-6-yl)-1H-indazole-6-carboxamide]
50 to 75%	50 to 75%	≥ 75%	Cc1nn(C2CCC(CCCC#Cc3cccc4c3CN(C3CCC(=O)NC3=O)C4=O)CC2)c2cc(C(=O)Nc3cc4[nH]c([C@H]5CCCN5C)cc4cn3)ccc12 (stereo partly drawn) [Example 74, 1-(4-(5-(2-(2,6-dioxopiperidin-3-yl)-1-oxoisoindolin-4-yl)pent-4-yn-1-yl)cyclohexyl)-3-methyl-N-(2-((R)-1-methylpyrrolidin-2-yl)-1H-pyrrolo[3,2-c]pyridin-6-yl)-1H-indazole-6-carboxamide]
